Experimental data from ChEMBL document CHEMBL2439969, “Replacement of Thr32 and Gln34 in the C-terminal neuropeptide Y fragment 25-36 by cis-cyclobutane and cis-cyclopentane β-amino acids shifts selectivity toward the Y(4) receptor” (J Med Chem, 2013).
Residues, ends and D or L forms follow the SMILES beside them.

Experiments:
[1] = target: T1, Neuropeptide Y receptor type 4 (Homo sapiens, UniProt P50391); experiment: Displacement of Cy5-[K4]hPP from human Y4 receptor expressed in CHO cells after 90 to 120 mins by flow cytometry; type: cell-based
T1 sequence (P50391 whole entry): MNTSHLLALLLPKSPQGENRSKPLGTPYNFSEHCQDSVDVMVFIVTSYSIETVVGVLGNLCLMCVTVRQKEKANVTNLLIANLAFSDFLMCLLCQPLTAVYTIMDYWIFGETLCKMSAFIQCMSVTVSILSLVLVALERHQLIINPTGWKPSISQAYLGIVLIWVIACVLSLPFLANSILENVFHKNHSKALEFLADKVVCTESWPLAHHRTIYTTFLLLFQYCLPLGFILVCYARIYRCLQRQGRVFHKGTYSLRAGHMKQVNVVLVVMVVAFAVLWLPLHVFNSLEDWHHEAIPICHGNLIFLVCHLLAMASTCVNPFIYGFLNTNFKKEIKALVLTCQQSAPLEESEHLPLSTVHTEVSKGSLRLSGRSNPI

[2] = target: T2, Neuropeptide Y receptor type 2 (Homo sapiens, UniProt P49146); experiment: Displacement of Cy5-pNPY from human Y2 receptor expressed in CHO cells after 90 to 120 mins by flow cytometry; type: cell-based
T2 sequence (P49146 whole entry): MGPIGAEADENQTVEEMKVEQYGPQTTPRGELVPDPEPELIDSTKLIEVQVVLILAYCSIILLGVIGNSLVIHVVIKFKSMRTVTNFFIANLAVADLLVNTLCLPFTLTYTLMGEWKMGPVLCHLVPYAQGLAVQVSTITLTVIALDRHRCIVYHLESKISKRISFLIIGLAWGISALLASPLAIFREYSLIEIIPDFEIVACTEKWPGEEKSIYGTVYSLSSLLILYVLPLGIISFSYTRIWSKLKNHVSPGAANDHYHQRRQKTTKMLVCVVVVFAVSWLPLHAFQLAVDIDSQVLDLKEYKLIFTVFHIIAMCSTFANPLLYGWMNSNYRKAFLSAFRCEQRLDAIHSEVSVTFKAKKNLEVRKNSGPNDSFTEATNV

[3] = target: T3, Neuropeptide Y receptor type 5 (Homo sapiens, UniProt Q15761); experiment: Displacement of Cy5-pNPY from human Y5 receptor expressed in human HEC-1B cells after 90 to 120 mins by flow cytometry; type: cell-based
T3 sequence (Q15761 whole entry): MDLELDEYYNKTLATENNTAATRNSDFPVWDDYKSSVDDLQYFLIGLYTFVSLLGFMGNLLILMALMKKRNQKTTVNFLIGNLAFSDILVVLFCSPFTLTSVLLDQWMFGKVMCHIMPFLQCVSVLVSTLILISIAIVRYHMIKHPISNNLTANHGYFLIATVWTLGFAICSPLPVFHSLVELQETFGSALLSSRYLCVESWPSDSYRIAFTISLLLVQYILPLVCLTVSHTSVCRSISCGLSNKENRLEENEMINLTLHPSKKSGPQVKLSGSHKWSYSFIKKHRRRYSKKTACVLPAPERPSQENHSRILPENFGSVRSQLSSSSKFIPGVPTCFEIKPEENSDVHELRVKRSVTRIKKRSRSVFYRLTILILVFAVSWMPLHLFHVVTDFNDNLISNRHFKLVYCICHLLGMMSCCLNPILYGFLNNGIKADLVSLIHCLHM

[4] = target: T4, Neuropeptide Y receptor type 1 (Homo sapiens, UniProt P25929); experiment: Displacement of Cy5-pNPY from human Y1 receptor expressed in HEL cells after 90 to 120 mins by flow cytometry; type: cell-based
T4 sequence (P25929 whole entry): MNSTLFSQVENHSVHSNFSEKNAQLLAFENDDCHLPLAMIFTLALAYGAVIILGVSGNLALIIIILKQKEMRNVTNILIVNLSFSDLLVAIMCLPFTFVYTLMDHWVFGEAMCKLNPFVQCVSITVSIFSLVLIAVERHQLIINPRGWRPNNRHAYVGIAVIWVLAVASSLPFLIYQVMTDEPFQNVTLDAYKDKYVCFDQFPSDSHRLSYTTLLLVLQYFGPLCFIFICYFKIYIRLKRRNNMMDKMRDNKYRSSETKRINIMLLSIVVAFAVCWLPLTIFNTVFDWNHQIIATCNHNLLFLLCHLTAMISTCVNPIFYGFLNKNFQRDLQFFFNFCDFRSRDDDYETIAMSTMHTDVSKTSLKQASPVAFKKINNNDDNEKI

[5] = target: T1, Neuropeptide Y receptor type 4; experiment: Agonist activity at human Y4 receptor
[6] = target: T1, Neuropeptide Y receptor type 4; experiment: Binding affinity to human Y4 receptor

## CC[C@H](C)[C@H](NC(=O)[C@H](CC(C)C)NC(=O)[C@H](CCSC)NC(=O)[C@H](CC(N)=O)NC(=O)[C@@H](NC(=O)[C@H](Cc1ccc(O)cc1)NC(=O)[C@H](CCCNC(=N)N)NC(=O)[C@H](CCCNC(=N)N)NC(=O)[C@H](CC(C)C)NC(=O)[C@H](CC(=O)O)NC(=O)[C@H](C)NC(=O)[C@H](C)NC(=O)[C@H](Cc1ccc(O)cc1)NC(=O)[C@H](CCC(N)=O)NC(=O)[C@H](C)NC(=O)[C@H](CCSC)NC(=O)[C@H](CCC(N)=O)NC(=O)[C@H](CCC(=O)O)NC(=O)[C@@H]1CCCN1C(=O)[C@@H](NC(=O)[C@H](C)NC(=O)[C@H](CC(N)=O)NC(=O)[C@H](CC(=O)O)NC(=O)CNC(=O)[C@@H]1CCCN1C(=O)[C@H](Cc1ccc(O)cc1)NC(=O)[C@@H](NC(=O)[C@@H]1CCCN1C(=O)[C@H](CCC(=O)O)NC(=O)[C@H](CC(C)C)NC(=O)[C@@H]1CCCN1C(=O)[C@H](C)N)C(C)C)[C@@H](C)O)[C@@H](C)O)C(=O)N[C@@H](CCCNC(=N)N)C(=O)N1CCC[C@H]1C(=O)N[C@@H](CCCNC(=N)N)C(=O)N[C@H](N)Cc1ccc(O)cc1 (HELM PEPTIDE1{A.P.L.E.P.V.Y.P.G.D.N.A.T.P.E.Q.M.A.Q.Y.A.A.D.L.R.R.Y.T.N.M.L.I.R.P.R.[N[C@H](Cc1ccc(O)cc1)N[*:1]]}$$$$V2.0)
[1]
  Ki: > 1000 nM
[2]
  Ki: > 5 µM
[3]
  Ki: 17 nM
[4]
  Ki: 440 nM
[5]
  EC50: 11 nM
[6]
  Ki: 0.53 nM
